Data on three molecules can be found in patent publication US20240360194A1, “New Peptides as Potent and Selective GIP Receptor Agonists” (Sanofi, priority 2021, published 2024).

Data set [1] in a line: Solubility assessment (UHPLC-UV of supernatant, target 10 mg/ml). The class given is physicochemical. In a few lines: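 Peptides at 10 mg/ml (purity-corrected) in 100 mM phosphate pH 7.4, optionally with 2.7 mg/ml m-cresol; gentle agitation 1 h, then 5° C. overnight (24 h). Supernatant after 15 min centrifugation at 2500 RCF quantified by UHPLC-UV, with sequence-based extinction coefficients.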

Data set [2] has as its target T1, human GIP receptor (hGIPR) (Homo sapiens, UniProt P48546).
T1 sequence (P48546 22-466): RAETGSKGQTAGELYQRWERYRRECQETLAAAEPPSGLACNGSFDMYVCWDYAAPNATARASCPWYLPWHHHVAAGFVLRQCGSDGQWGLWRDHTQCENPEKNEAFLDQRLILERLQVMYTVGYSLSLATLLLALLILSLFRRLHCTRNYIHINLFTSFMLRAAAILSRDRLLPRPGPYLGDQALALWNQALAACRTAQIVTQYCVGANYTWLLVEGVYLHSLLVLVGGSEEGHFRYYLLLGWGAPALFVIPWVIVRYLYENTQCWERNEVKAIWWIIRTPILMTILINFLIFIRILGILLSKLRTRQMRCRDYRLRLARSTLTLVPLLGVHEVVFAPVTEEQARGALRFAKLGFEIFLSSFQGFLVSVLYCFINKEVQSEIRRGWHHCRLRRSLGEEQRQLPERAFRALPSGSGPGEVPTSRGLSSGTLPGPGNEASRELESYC
The data set can be described thus: Binding assay, displacement of [125I]GIP from HEK-293 membranes over-expressing GIPR (SPA). To be noted: [125I]GIP displacement. Put shortly: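 Membranes from HEK-293 cells over-expressing human GIPR or GLP-1R, isolated by homogenising, sonicating and ultracentrifuging at 100000×g into HEPES/EDTA/NaCl buffer with protease inhibitors, were used for binding.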
(Loss of bound radioactivity is the signal in a displacement assay; it reports binding, not function.)

The target of data set [3] is human GLP-1 receptor (hGLP-1R) (Homo sapiens, UniProt P43220). Nature of the data set: In vitro cellular cAMP assay for GLP-1 receptor efficacy (HEK-293 cell line over-expressing receptor). The data set is classed as cell-based. The conditions noted are these: HEK-293, 0.1% BSA.
human GLP-1 receptor (hGLP-1R), sequence (P43220 24-463): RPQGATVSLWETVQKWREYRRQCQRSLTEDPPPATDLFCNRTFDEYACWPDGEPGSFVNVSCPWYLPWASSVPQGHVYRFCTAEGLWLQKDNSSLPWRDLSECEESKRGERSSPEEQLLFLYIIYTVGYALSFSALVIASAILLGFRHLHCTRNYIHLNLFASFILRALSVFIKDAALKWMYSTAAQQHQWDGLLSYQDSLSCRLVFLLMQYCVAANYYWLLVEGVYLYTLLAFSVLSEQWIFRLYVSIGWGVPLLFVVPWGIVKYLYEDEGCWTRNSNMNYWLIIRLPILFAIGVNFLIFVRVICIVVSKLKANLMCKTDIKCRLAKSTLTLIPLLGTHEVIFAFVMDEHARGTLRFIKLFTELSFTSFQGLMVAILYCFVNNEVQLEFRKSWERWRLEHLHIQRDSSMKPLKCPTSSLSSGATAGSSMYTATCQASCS
In data set [4] the target is T2, human GIP receptor (Homo sapiens, UniProt P48546).
T2 construct: human adipocytes endogenously expressing the human GIP receptor; host or cells: human preadipocytes (Lonza) differentiated to adipocytes
T2 sequence (P48546 22-466): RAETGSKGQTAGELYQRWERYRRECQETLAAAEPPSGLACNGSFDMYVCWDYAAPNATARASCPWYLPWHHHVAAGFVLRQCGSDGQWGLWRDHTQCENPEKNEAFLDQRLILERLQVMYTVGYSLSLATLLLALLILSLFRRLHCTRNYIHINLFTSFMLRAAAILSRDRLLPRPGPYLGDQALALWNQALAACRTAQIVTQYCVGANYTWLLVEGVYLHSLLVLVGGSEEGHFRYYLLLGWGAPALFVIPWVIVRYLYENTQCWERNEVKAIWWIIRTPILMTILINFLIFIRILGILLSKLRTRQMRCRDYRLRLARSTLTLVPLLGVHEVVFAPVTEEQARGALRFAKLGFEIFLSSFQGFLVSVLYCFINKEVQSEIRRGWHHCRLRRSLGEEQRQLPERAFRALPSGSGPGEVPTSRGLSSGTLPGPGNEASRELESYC
Nature of the data set: In vitro cellular cAMP assay for GIP receptor efficacy (human adipocytes). The data set is classed as cell-based. In a few lines: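 Human preadipocytes expanded, then differentiated 6 days (insulin, dexamethasone, PPARγ agonist, 200 μM IBMX, L-thyroxine) before plating at 5000 cells/well. Test compound applied 30 min at room temperature; cAMP measured by HTRF after 1 h with lysis-buffer reagents, read as 665/620 nm fluorescence ratio.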
For orientation: Changes in cAMP serve as a functional read-out for many G protein-coupled receptors.

For data set [5], the target named is T1, human GIP receptor (hGIPR). The data set can be described thus: In vitro cellular cAMP assay for GIP receptor efficacy (HEK-293 cell line over-expressing receptor). The data set is classed as cell-based. The conditions noted are these: EC50 hGIPR 0.1% BSA, HEK-293, 0.1% BSA.
In data set [6] the target is T3, human GIP receptor (human, UniProt P48546 22-466).
T3 sequence (looked up): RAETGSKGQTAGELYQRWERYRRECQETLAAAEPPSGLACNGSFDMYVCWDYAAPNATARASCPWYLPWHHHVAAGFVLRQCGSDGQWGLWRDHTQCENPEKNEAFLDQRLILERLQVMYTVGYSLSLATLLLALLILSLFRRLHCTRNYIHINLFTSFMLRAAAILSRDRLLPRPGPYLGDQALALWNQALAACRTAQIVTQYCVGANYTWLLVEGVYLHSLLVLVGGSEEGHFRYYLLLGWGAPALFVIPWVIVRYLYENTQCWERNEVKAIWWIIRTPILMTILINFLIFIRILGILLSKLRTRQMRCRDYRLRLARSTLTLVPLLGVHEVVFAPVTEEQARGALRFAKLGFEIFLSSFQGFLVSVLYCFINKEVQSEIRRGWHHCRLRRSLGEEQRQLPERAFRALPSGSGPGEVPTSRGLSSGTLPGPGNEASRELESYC
The data set can be described thus: cell-based or functional assay.

The target of data set [7] is T3, human GIP receptor. Nature of the data set: cell-based or functional assay. The source holds these as a separate data set.
Data set [8] deals with human GLP-1 receptor (human, UniProt P43220 24-463). The data set can be described thus: cell-based or functional assay.

For orientation: solubility means how much of the substance goes into solution per volume. Read a low solubility as little dissolved substance. For orientation: IC50 means the concentration that gives 50% inhibition. A high value points to lower potency. For orientation: EC50 means the concentration that produces a half-maximal response. In general, Emax refers to the size of the effect at its maximum, as opposed to the concentration needed.

Numbered stars: 1 amine (or outer) side, 2 acyl side, 3 side chain; on linkers, the order of the positions; unused ones are H or OH. Square brackets hold non-standard residues; d marks the D form. Side chains are listed from the residue outwards. Ends that are not written are not given here. Peptide text beside a SMILES is read from it. * marks the point of attachment. C18 diacid = O=C(O)CCCCCCCCCCCCCCCCC(=O)*; γGlu = O=C(O)[C@H](CCC(=O)[*:2])N[*:1]; Abu = CC[C@H](N)C(=O)O; AEEA = NCCOCCOCC(=O)O; Aib = CC(C)(N)C(=O)O A value given as a limit tells only on which side of the number the result lay.

In data set [1] (24 h, pH 7.4), `CC[C@H](NC(=O)[C@@H](NC(=O)CNC(=O)[C@H](CCC(=O)O)NC(=O)C(C)(C)NC(=O)[C@@H](N)Cc1ccc(O)cc1)[C@@H](C)O)C(=O)N[C@H](C(=O)N[C@@H](CO)C(=O)N[C@@H](CC(=O)O)C(=O)N[C@@H](CC(C)C)C(=O)N[C@@H](CO)C(=O)N[C@H](C(=O)NC(C)(C)C(=O)N[C@@H](CCCCNC(=O)COCCOCCNC(=O)COCCOCCNC(=O)CC[C@H](NC(=O)CCCCCCCCCCCCCCCCC(=O)O)C(=O)O)C(=O)N[C@@H](CC(=O)O)C(=O)N[C@@H](CCCNC(=N)N)C(=O)N[C@H](C(=O)N[C@@H](Cc1c[nH]cn1)C(=O)N[C@@H](CCC(N)=O)C(=O)N[C@@H](CCC(=O)O)C(=O)N[C@@H](CCC(=O)O)C(=O)N[C@@H](Cc1ccccc1)C(=O)N[C@H](C(=O)N[C@@H](CCC(=O)O)C(=O)N[C@@H](Cc1c[nH]c2ccccc12)C(=O)N[C@@H](CC(C)C)C(=O)N[C@@H](CC(C)C)C(=O)N[C@@H](C)C(=O)N[C@@H](CCC(N)=O)C(=O)NCC(=O)N1CCC[C@H]1C(=O)N[C@@H](CO)C(=O)N[C@@H](CO)C(=O)NCC(=O)N[C@@H](C)C(=O)N1CCC[C@H]1C(=O)N1CCC[C@H]1C(=O)N1CCC[C@H]1C(=O)N[C@@H](CO)C(N)=O)[C@@H](C)CC)[C@@H](C)CC)[C@@H](C)CC)[C@@H](C)CC` [SEQ ID NO: 25, H2N-Y-Aib-E-G-T-Abu-I-S-D-L-S-I-Aib-K[{AEEA}2-gGlu-C18OH]-DRIHQEEFIEWLLAQGPSSGAPPPS-NH2] (H-Y[Aib]EGT[Abu]ISDLSI[Aib]K([AEEA-AEEA-γGlu-C18 diacid])DRIHQEEFIEWLLAQGPSSGAPPPS-NH2) showed a Soluble amount of over 9.2 mg/mL. The solubility at 24 h in data set [1] (pH 7.4, Soluble amount) was over 8800 µg/mL. In data set [2], this molecule showed an IC50 of 0.1 nM. Moreover, the EC50 in data set [3] was over 10 nM; in data set [4] (read-out: hGIPR EC50), 0.2 nM. For the same molecule, the Emax in data set [4] (read-out: hGIPR Emax) was 112%.
The molecule `CC[C@H](C)[C@H](NC(=O)[C@H](Cc1ccccc1)NC(=O)[C@H](CCC(=O)O)NC(=O)[C@H](CCC(=O)O)NC(=O)[C@H](CCC(N)=O)NC(=O)[C@H](Cc1c[nH]cn1)NC(=O)[C@@H](NC(=O)[C@H](CCCNC(=N)N)NC(=O)[C@H](CC(=O)O)NC(=O)[C@H](CCCCNC(=O)COCCOCCNC(=O)COCCOCCNC(=O)CC[C@H](NC(=O)CCCCCCCCCCCCCCCCC(=O)O)C(=O)O)NC(=O)C(C)(C)NC(=O)[C@@H](NC(=O)[C@H](CO)NC(=O)[C@H](CC(C)C)NC(=O)[C@H](CC(=O)O)NC(=O)[C@H](CO)NC(=O)[C@@H](NC(=O)[C@H](Cc1ccccc1)NC(=O)[C@@H](NC(=O)CNC(=O)[C@H](CCC(=O)O)NC(=O)C(C)(C)NC(=O)[C@@H](N)Cc1ccc(O)cc1)[C@@H](C)O)[C@@H](C)CC)[C@@H](C)CC)[C@@H](C)CC)C(=O)N[C@@H](CCC(=O)O)C(=O)N[C@@H](Cc1c[nH]c2ccccc12)C(=O)N[C@@H](CC(C)C)C(=O)N[C@@H](CC(C)C)C(=O)N[C@@H](C)C(=O)N[C@@H](CCC(N)=O)C(=O)N[C@@H](CCC(=O)O)C(=O)NCC(=O)O` [SEQ ID NO: 14, H2N-Y-Aib-E-G-T-F-I-S-D-L-S-I-Aib-K[{AEEA}2-gGlu-C18OH]-D-R-I-H-Q-E-E-F-I-E-W-L-L-A-Q-E-G-OH] (H-Y[Aib]EGTFISDLSI[Aib]K([AEEA-AEEA-γGlu-C18 diacid])DRIHQEEFIEWLLAQEG-OH) had an EC50 in data set [5] of 0.0757 nM.

B1: SEQ ID NO: 35 (peptide)
peptide: Y[Aib]EGTFISDLSI[Aib]K([AEEA-AEEA-γGlu-C18 diacid])DRIHQEEFIQWLLAQGPSSGAPPPS-NH2
modifications: N-terminus assumed
SMILES: CC[C@H](C)[C@H](NC(=O)[C@H](Cc1ccccc1)NC(=O)[C@H](CCC(=O)O)NC(=O)[C@H](CCC(=O)O)NC(=O)[C@H](CCC(N)=O)NC(=O)[C@H](Cc1c[nH]cn1)NC(=O)[C@@H](NC(=O)[C@H](CCCNC(=N)N)NC(=O)[C@H](CC(=O)O)NC(=O)[C@H](CCCCNC(=O)COCCOCCNC(=O)COCCOCCNC(=O)CC[C@H](NC(=O)CCCCCCCCCCCCCCCCC(=O)O)C(=O)O)NC(=O)C(C)(C)NC(=O)[C@@H](NC(=O)[C@H](CO)NC(=O)[C@H](CC(C)C)NC(=O)[C@H](CC(=O)O)NC(=O)[C@H](CO)NC(=O)[C@@H](NC(=O)[C@H](Cc1ccccc1)NC(=O)[C@@H](NC(=O)CNC(=O)[C@H](CCC(=O)O)NC(=O)C(C)(C)NC(=O)[C@@H](N)Cc1ccc(O)cc1)[C@@H](C)O)[C@@H](C)CC)[C@@H](C)CC)[C@@H](C)CC)C(=O)N[C@@H](CCC(N)=O)C(=O)N[C@@H](Cc1c[nH]c2ccccc12)C(=O)N[C@@H](CC(C)C)C(=O)N[C@@H](CC(C)C)C(=O)N[C@@H](C)C(=O)N[C@@H](CCC(N)=O)C(=O)NCC(=O)N1CCC[C@H]1C(=O)N[C@@H](CO)C(=O)N[C@@H](CO)C(=O)NCC(=O)N[C@@H](C)C(=O)N1CCC[C@H]1C(=O)N1CCC[C@H]1C(=O)N1CCC[C@H]1C(=O)N[C@@H](CO)C(N)=O
notes: Synthetic peptide, 39 residues (Gln at 24)
Turning to B1, in data set [6], the “hGIPR EC50 (cAMP, human adipocytes)” value came to 1.3 nM and the “hGIPR Emax (cAMP, human adipocytes)” value stood at 120%. Further, in data set [7], the “EC50 hGIPR 0% HSA (cAMP, HEK-293)” value was determined as 0.00024 nM and the “EC50 hGIPR 0.1% BSA (cAMP, HEK-293)” value turned out to be 0.0107 nM. The “EC50 hGLP-1R 0.1% BSA (cAMP, HEK-293)” value in data set [8] is over 10 nM.
